Reference: patent US20110082098A1, “NOVOBIOCIN ANALOGUES AND TREATMENT OF POLYCYSTIC KIDNEY DISEASE” (UNIVERSITY OF KANSAS, priority 2009, published 2011)
“Also recorded” adds a separate entry of the source.

How the values were obtained:
ERK 1/2 = assay: Inhibition of p-ERK in EGF stimulated ADPKD cells by Western blot; format: cell-based, human; conditions: for decrease in P-Erk (phosphorylation of ERK 1/2): EGF-stimulated ADPKD cells
Description: (§1) Human ADPKD cells were plated at a density of 1×10^5 cells per well in medium containing 1% FBS in a 6-well plate. Cells were serum-starved for 24 hours and treated with 25 ng/ml EGF to stimulate cell proliferation, then treated with increasing concentrations of KU-174. As a control for inhibition of the mTOR pathway, ADPKD cells were stimulated by EGF and treated with Rapamycin or LY294002. After 24 or 48 hours, cytoplasmic protein extracts were prepared by lysing cells in ice-cold lysis buffer (10 mM Tris-Cl pH 7.5, 150 mM NaCl, 2 mM EDTA pH 8.0, 1% Triton X-100, 0.5% NP-40, 25 mM glycerol 2-phosphate, 1 mM sodium orthovanadate, 1 mM phenylmethylsulfonyl fluoride, and 0.1% v/v Sigma protease inhibitor cocktail). Nuclei and other Triton-insoluble components were removed by high speed centrifugation. Protein concentration was measured using the Pierce BCA assay kit. 20 μg total protein was boiled with SDS sample buffer and fractionated on 7.5, 10 or 12.5% SDS-PAGE gels. Proteins were transferred to PVDF membranes and non-specific binding blocked with 5% powdered milk in TBS-T (10 mM Tris-Cl pH 7.5, 150 mM NaCl, and 0.1% Tween 20) for 1 h at room temperature. Blocked membranes were incubated with primary antibodies in 5% powdered milk or 5% BSA (for phospho-proteins) in TBS-T overnight at 4° C. Membranes were then washed three times with TBS-T and incubated with alkaline phosphatase-conjugated secondary antibodies in 5% milk in TBS-T for 30 min at room temperature. The membranes were washed three times with TBS-T, and protein bands were visualized using the CDP-star detection reagent (GE healthcare). Intensity was detected and quantitatively analyzed by the Fluor-S MAX multi-imager system (Bio-Rad).

mTOR pathway = assay: Inhibition of mTOR pathway in EGF stimulated ADPKD cells by Western blot; format: cell-based, human
Description: as §1
Human ADPKD cells were plated at a density of 1×10^5 cells per well in medium containing 1% FBS in a 6-well plate. Cells were serum-starved for 24 hours and treated with 25 ng/ml EGF to stimulate cell proliferation, then treated with increasing concentrations of KU-174. As a control for inhibition of the mTOR pathway, ADPKD cells were stimulated by EGF and treated with Rapamycin or LY294002, (an inhibitor of phosphoinositide-3-kinases, PI3Ks). After 24 or 48 hours, cells were lysed and 20 μg total cell lysate analyzed by Western blotting. Blots were probed with antibodies against p-Akt (S473), Akt, p-TSC2 (S939), TSC2, p-mTOR (S2448), mTOR, p-S6K (T412 and T389; phospho-p70 S6 Kinase phosphorylated at T389 or T412) and S6K (p70 S6 kinase; p70S6K1). […] In the 1 μM KU-174 treated cell lysates, p-Akt was decreased by 64%, p-mTOR by 56%, and p-S6K isoforms p85 and p70 by 75% compared with control EGF treated cells and normalized with respect to the corresponding total protein (n=3). There was no change in p-TSC2 levels. […] The figures represent results from independent experiments using primary human ADPKD cells from three different kidneys.

human ADPKD cells = assay: Microcyst assay in collagen gel matrix; format: cell-based
Description: Microcyst assay was performed as described previously by Yamaguchi, T., et al., Calcium restores a normal proliferation phenotype in human polycystic kidney disease epithelial cells. J Am Soc Nephrol, 2006. 17(1): p. 178-87. Primary cultures of human ADPKD cells (4×10^3 cells/well) were dispersed within an ice-cold type I collagen matrix (Vitrogen; Collagen Corp., Palo Alto, Calif.) in wells of a 96-well culture plate. Warming the plate to 37° C. caused polymerization of the collagen, trapping the cells within the gel. A defined medium (DMEM/F12 with ITS, 5×10^−8M hydrocortisone, and 5×10^−5 M triiodothyronine) supplemented with 5 μM forskolin and 5 ng/ml EGF was added for 3 days to initiate cyst growth. Forskolin (FSK) is a small molecule agonist of adenylyl cyclase, the enzyme that makes cAMP. Thus, FSK treatment of cells increases the levels of intracellular cAMP. Fresh media containing EGF and forskolin plus 1 μM or 5 μM KU-174 were added for an additional 5-7 days. […] Gels containing cysts were fixed in 1% formaldehyde and cyst diameters were measured using a morphometric analysis system. Outer diameters of cross-sectional images of spherical cysts with distinct lumens were measured using an inverted microscope with a digital camera and video analysis software. The total surface area (SA) of the cysts within each well was calculated from the individual cyst diameters (cysts≧100 μm). KU-174 inhibits microcyst formation by ADPKD cells in a collagen gel matrix.

[1] = test system: Hsp90 client proteins CFTR, C-Raf, cdk4, ErbB2 and Akt; assay: Hsp90 client protein levels in EGF stimulated human ADPKD cells by Western blot; format: cell-based
Description: as §1
Proteins from 20 μg total cell lysate were analyzed by Western blotting. Blots were probed with antibodies against Hsp90 and client proteins CFTR, C-Raf, cdk4, ErbB2 and Akt. GAPDH served as the internal control.

[2] = test system: Human ADPKD cyst-lining epithelial cells; assay: Cell proliferation assay (Promega Cell Titer 96 MTT); format: cell-based; conditions: 0.1, 0.5, 1 uM KU-174 for 72 h
Description: Primary cultures of human ADPKD cyst-lining epithelial cells were established as described in Yamaguchi, T., et al., Calcium restores a normal proliferation phenotype in human polycystic kidney disease epithelial cells. J Am Soc Nephrol, 2006. 17(1): p. 178-87. Cystic tissue from ADPKD kidneys were minced and digested overnight in DMEM/F12 (1:1) mixture that contained 220 IU/ml type IV collagenase and 100 IU/ml penicillin G and 0.1 mg/ml streptomycin (P/S) (13). Collagenase digestion was stopped by the addition of FBS. […]
The novobiocin analog KU-174 was studied to determine the effect on cAMP and EGF-stimulated proliferation of ADPKD cyst-lining epithelial cells. Cell proliferation was determined by the Promega Cell Titer 96 MTT assay method as described in Yamaguchi, T., et al., Calcium restores a normal proliferation phenotype in human polycystic kidney disease epithelial cells. […] After 72 hours of treatment, cell proliferation was measured by adding the MTT assay reagent and stopping the reaction four hours later. Absorbance was read on a spectrophotometer at 570 nm. Optical densities were measured using a spectrophotometer. In each group, results were expressed as a percentage of the control group (not treated with KU-174).

[3] = test system: Pkd1+/− mouse metanephric kidneys; assay: Metanephric organ culture; conditions: embryonic day 15.5 kidneys, 100 μM cAMP, 10 μM KU-174, four days
Description: Pkd1^m1Bei mice were obtained from the Mutant Mouse Regional Resource Center (University of North Carolina, Chapel Hill, N.C.) and were stabilized onto a C57BL/6 background (>10 backcrosses). This mouse has a point mutation (T to G at 9248 bp) that causes an M to R substitution that affects the first transmembrane domain of polycystin-1 as described by Herron, B. J., et al., Efficient generation and mapping of recessive developmental mutations using ENU mutagenesis. Nat Genet, 2002. 30(2): p. 185-9.
Mouse metanephric kidneys were cultured according to methods described in Magenheimer, B. S., et al., Early embryonic renal tubules of wild-type and polycystic kidney disease kidneys respond to cAMP stimulation with cystic fibrosis transmembrane conductance regulator/Na(+),K(+),2Cl(−) Co-transporter-dependent cystic dilation. J Am Soc Nephrol, 2006. 17(12): p. 3424-37. Metanephroi were dissected from Pkd1+/− embryonic mice and placed on transparent Falcon […] cell culture inserts. […] Upon culturing (day 0) and approximately 24 h later (day 1) and each day after (days 2 to 4), kidneys were photographed using a 2× or 4× objective, and the images were acquired and analyzed using the analySIS imaging program (Soft Imaging System, Munster, Germany). […]

murine pkd1-null cells = conditions: cited from earlier work
Pkd1−/− embryonic mice = Pkd1−/− embryonic mice with ADPKD; cited from earlier work
[4] = 48 h, 1 μM KU-174, compared to control EGF treated cells

For `COc1cccc(-c2cc(C(=O)Nc3cc4ccc(O[C@@H]5OC(C)(C)[C@H](OC)[C@@H](O)[C@H]5O)c(OC)c4oc3=O)ccc2OC)c1` [KU-174, N-(7-((2S,3R,4S,5R)-3,4-dihydroxy-5-methoxy-6,6-dimethyltetrahydro-2H-pyran-2-yloxy)-8-methoxy-2-oxo-2H-chromen-3-yl)-3′,6-dimethoxybiphenyl-3-carboxamide], the “decrease in P-Erk (phosphorylation of ERK 1/2)” value (ERK 1/2; 0.5 μM KU-174, 48 h) was 70%, the “total Erk levels” value (ERK 1/2; 0.5 μM and 1 μM KU-174, EGF-stimulated ADPKD cells) was “remained virtually unchanged” and the “decrease in P-Erk (phosphorylation of ERK 1/2)” value (ERK 1/2; 1 μM KU-174, 48 h) was 80%. For the same compound, the “inhibition of p-ERK” value (ERK 1/2; increasing concentrations of KU-174, EGF-stimulated ADPKD cells) was “dose-dependent inhibition”, the p-S6K (mTOR pathway; 24 h, 1 μM KU-174) was “slight decrease” and the “change in phosphoproteins (P-mTOR, P-Akt, P-TSC2, P-S6K)” value (mTOR pathway; 24 h of treatment, 50 nM to 1 μM KU-174, EGF-stimulated ADPKD cells) was “no change”. For the same compound, the “decrease in P-Akt (S473)” value (mTOR pathway; [4]) was 64%, the “decrease in P-S6K (isoforms p85 and p70)” value (mTOR pathway; [4]) was 75% and the “decrease in P-mTOR (S2448)” value (mTOR pathway; [4]) was 56%. For the same compound, the decreasing the phosphoproteins (mTOR pathway; 48 h, both 0.5 and 1 μM KU-174) was “effective”, the “P-TSC2 (S939) levels” value (mTOR pathway; EGF-stimulated ADPKD cells, KU-174 up to 1 μM, 48 h) was “no change” and the “total Akt levels” value (mTOR pathway; at the concentrations examined (up to 1 μM KU-174)) was “did not appear to decrease”. The “inhibition in cyst growth (total cyst surface area per well)” value (human ADPKD cells; 1 μM KU-174, EGF and forskolin, p<0.01) was “significant inhibition”, the “inhibition of cyst-formation induced by EGF and forskolin” value (human ADPKD cells; 1 μM KU-174, n=6) was “more than 3 fold” and the cyst formation (human ADPKD cells; 5 μM KU-174, EGF and forskolin, p<0.01) was “completely eliminated”. The “microcyst formation by ADPKD cells in a collagen gel matrix” value (human ADPKD cells; EGF and forskolin, 1 μM or 5 μM KU-174) was “dose-dependent inhibition; also recorded: reduces; also recorded: inhibits”, the “total levels of C-Raf” value ([1]; 24 h, 1 μM KU-174) was “decreased” and the “total levels of CFTR” value ([1]; 24 h, 1 μM KU-174) was “decreased”. The “all the client proteins examined (CFTR, C-Raf, cdk4, ErbB2)” value ([1]; 48 h, both 0.5 and 1 μM KU-174) was “effective in decreasing”, the “levels of the Hsp90 client proteins CFTR, ErbB2, c-Raf and Cdk4” value ([1]; dose and time-dependent manner, ADPKD cells) was “decreases” and the “proliferation of EGF-stimulated ADPKD cyst-lining epithelial cells (MTT assay)” value ([2]; 25 ng/ml EGF) was “dose-dependent decrease; also recorded: significantly inhibited”. The “proliferation of cAMP-stimulated ADPKD cyst-lining epithelial cells (MTT assay)” value ([2]; 100 μM cAMP) was “dose-dependent decrease; also recorded: significantly inhibited” and the “cyst burden / cyst formation in cAMP-treated metanephric kidneys” value [3] was “reduces the cyst burden; also recorded: reduction in cyst burden; also recorded: reduced cyst formation”.
For `CC(C)[C@]12O[C@H]1[C@@H]1O[C@]13[C@]1(O[C@H]1C[C@H]1C4=C(CC[C@@]13C)C(=O)OC4)[C@@H]2O` [Triptolide], the cell growth (murine pkd1-null cells) is listed as “cause cell growth arrest” and the cyst formation (Pkd1−/− embryonic mice) is listed as “inhibit cyst formation”.
